# Experimental data taken from patent publication US20200188477A1, “A MEDICAMENT FOR THE TREATMENT OF DISEASES BY BIOFILM FORMING MICROORGANISMS” (priority 2017, published 2020).
# Test system: M. smegmatis over-expressing M. tuberculosis PpiB protein
# Assay: Biofilm formation assay (crystal violet)
# Format: cell-based, Mycobacterium smegmatis
# Settings: Ms_PpiB (Tet+), 7 days, absorbance 550 nm
compound,measurement,value
C[C@H]1O[C@H](O[C@H]2[C@H](O)[C@@H](O)[C@@H](O[C@H]3[C@H](O)[C@@H](O)C(O)O[C@@H]3CO)O[C@@H]2CO)[C@H](O)[C@@H](O)[C@@H]1N[C@H]1C=C(CO)[C@@H](O)[C@H](O)[C@H]1O (stereo partly shown) [acarbose],concentration at which treatment significantly reduced biofilm formation,above 500 μg/ml
